Paper PMC8113231 (Nature Communications, 2021)
Where a SMILES comes first, the peptide text is derived from it. Bridges are numbered along the chain shown (N, C = ends).

Columns and labels:
H1N1/Tokyo2619 = format: cell-based, influenza A virus
H5N1/Vac-3 = format: cell-based, influenza A virus
[1] = system: A/duck/Hokkaido/Vac-3/07 (H5N1/Vac-3); test: microbe, parasite or virus in culture; format: cell-based, influenza A virus; conditions: Influenza A virus, H5N1, MDCK; 48–72 h; read-out: EC50, plaque reduction, H5N1/Vac-3
[2] = system: A/Puerto Rico/8/34 (H1N1/PR8); test: microbe, parasite or virus in culture; format: cell-based; conditions: Influenza A virus, MDCK; 48–72 h; read-out: EC50, plaque reduction, H1N1/PR8
[3] = system: A/Narita/1/09 (H1N1/Narita); test: microbe, parasite or virus in culture; format: cell-based; conditions: Influenza A virus, H1N1, MDCK; 48–72 h; read-out: EC50, plaque reduction, H1N1/Narita
[4] = system: A/Tokyo/2619/09 (H1N1/Tokyo2619); test: microbe, parasite or virus in culture; format: cell-based; conditions: Influenza A virus, H1N1, MDCK; 48–72 h; read-out: EC50, plaque reduction, H1N1/Tokyo2619
[5] = system: A/whooper swan/Mongolia/3/05 (H5N1/Mongolia; clade 2.2); test: microbe, parasite or virus in culture; format: cell-based; conditions: Influenza A virus, H5N1, MDCK; 48–72 h; read-out: EC50, plaque reduction, H5N1/Mongolia (clade 2.2)
A/Adachi/2/57 (H2N2) = test: microbe, parasite or virus in culture; format: cell-based; conditions: Influenza A virus, H2N2, MDCK; 48–72 h; read-out: EC50, plaque reduction, H2N2/Adachi
[6] = system: A/whooper swan/Hokkaido/1/08 (H5N1); parameters: species or system BALB/c mice; conditions: mouse, in vivo
[7] = system: A/whooper swan/Hokkaido/1/08 (H5N1/Hokkaido; clade 2.3.2.1); test: microbe, parasite or virus in culture; format: cell-based; conditions: Influenza A virus, H5N1, MDCK; 48–72 h; read-out: EC50, plaque reduction, H5N1/Hokkaido (clade 2.3.2.1)

Row | SMILES | H1N1/Tokyo2619 virus-mediated RBC membrane fusion (H1N1/Tokyo2619) | H5N1/Vac-3 virus-mediated RBC membrane fusion (H5N1/Vac-3) | EC50 [1] [µM] | EC50 [2] [µM] | EC50 [3] [µM] | EC50 [4] [µM] | EC50 [5] [µM] | EC50 (A/Adachi/2/57 (H2N2)) [µM] | Survival outcome, delayed administration [6] | EC50 [7] [µM]
1 | CC[C@H](C)[C@@H]1NC(=O)[C@H](C)NC(=O)[C@H](Cc2c[nH]c3ccccc23)NC(=O)[C@H](CCC(=O)O)NC(=O)[C@H](CC(C)C)NC(=O)[C@@H]2CCCN2C(=O)[C@H](Cc2ccccc2)NC(=O)[C@H](CCCCN)NC(=O)[C@H](Cc2c[nH]c3ccccc23)NC(=O)[C@H](CC(N)=O)NC(=O)[C@H](C(C)C)NC(=O)CSC[C@@H](C(=O)NCC(N)=O)NC(=O)[C@H](Cc2ccc(O)cc2)NC(=O)[C@H](CCCNC(=N)N)NC1=O [iHA-12sf, reference compound] ({CH2CO}-VNWKFPLEWAIRYCG-NH2; thioether N-14) | did not reduce RBC membrane fusion | did not reduce RBC membrane fusion |  |  |  |  |  |  |  | 
2 | CC(=O)N[C@H]1[C@H]([C@H](O)[C@H](O)CO)OC(C(=O)O)=C[C@@H]1N=C(N)N [zanamivir] |  |  | 0.042 | 0.115 | > 1 | > 1 | < 0.01 | 0.06 | all mice in the zanamivir-treated group died | < 0.01
